As a reminder, the EC50 is the midpoint of the concentration-response curve.

Results on three compounds are retold here after patent US20240376111A1, “COMPOSITIONS AND METHODS OF USING THE SAME FOR TREATMENT OF NEURODEGENERATIVE AND MITOCHONDRIAL DISEASE” (Mitokinin, Inc., priority 2021, published 2024).

Read-outs that look alike come from different tables or passages of the source.

Data set [1] relates to HeLa cells expressing mt-Keima and YFP-Parkin (HeLa MKYP). Put plainly: Human mt-Keima mitophagy assay. The conditions noted are these: HeLa MKYP cells, 16 hrs with compound, then 1 uM FCCP/oligomycin for 6 hours, FACS, read-out: EC50 in HeLa mt-Keima Mitophagy Assay. It counts as cell-based. On the procedure:
Briefly, HeLa cells expressing mt-Keima and YFP-Parkin (HeLa MKYP) were plated at 10,000 cells/well in 96 well plates along with compounds at various concentrations. Following 16 hrs of incubation, cells were treated with 1 uM FCCP/oligomycin for 6 hours, then analyzed via FACS for the presence of mitochondria in lysosomes (as determined by an emissions spectrum shift from the pH-sensitive mt-Keima tag).

In data set [2] the test system is pS129 α-synuclein in mouse primary neurons treated with α-synuclein PFFs. In words: In vitro primary neuron α-synuclein pre-formed fibril (PFF) model. As to conditions: increasing doses, Western blot of insoluble fraction of lysates. It counts as cell-based. How it is done:
Primary hippocampal neurons were derived following standard protocols, and treated with sonicated PFFs according to the methods in Volpicelli-Daley et al (Methods Mol Biol 2019). Following addition of PFFs or PBS on DIV7, Mitokinin compound or vehicle control was added on DIV9 and DIV12. At DIV14, cultures were harvested for biochemical analysis using either whole cell lysis buffer or fractionation buffer containing NP-40.
For whole cell lysates, cultures were collected in WC lysis buffer [100 mM Bicine pH 8.0, 0.27M Sucrose (Sigma S-1888, FW: 342.3), 1 mM EDTA, 1 mM EGTA, 5 mM Na4P2O7 (ESB422, MW 446.06 g/mol), 100 mM Tris pH 7.5, 1% Triton X-100, 1× Halt™ Protease and Phosphatase Inhibitor Cocktail, with Benzonase (1:1000)]. Samples were incubated on ice for 30 min, sonicated, and then cleared by centrifugation at 18,000 g for 20 min at 4° C. Supernatant protein concentration was determined by BCA assay, and samples were analyzed by western blot using commercially available antibodies. Neuronal health markers included NfL, total caspase-3, cleaved caspase-3, pS65 Ub, LC3, TUJ1, and actin.
For fractionation, cells were collected in NP-40 lysis buffer (containing 10 mM Tris-HCl, pH 7.4, 150 mM NaCl, 5 mM EDTA, 0.5% Nonidet P-40, 1× Halt™ Protease and Phosphatase Inhibitor Cocktail, with Benzonase (1:1000). Following differential centrifugation at 22,000 g for 20 min at 4° C., the NP-40 insoluble pellet was resuspended in SDS-Brain lysis buffer (containing 10 mM Tris-HCl, pH 7.4, 150 mM NaCl, 5 mM EDTA, 0.5% Nonidet P-40, 1% SDS, 0.5% sodium deoxycholate, 1× Halt™ Protease and Phosphatase Inhibitor Cocktail, with Benzonase (1:1000) and sonicated. Protein concentrations were determined using the BCA assay and samples were analyzed for pS129 α-synuclein and total α-synuclein levels by western blot.
In general terms: In western blotting, separated proteins are transferred to a membrane and probed.

The subject of data set [3] is SKOV3 cells. Put plainly: In vitro mitosafety (glucose/galactose) assay. As to conditions: highest mito-safe dose = highest concentration at which gal/glc>0.80 (IC20) in SKOV3 cells, divided by mt-Keima EC50.
Method: (§1) Briefly, SKOV3 cells (ATCC HTB-77) were plated in DMEM (Corning 10-013-CV) medium containing 25 mM glucose or DMEM with no glucose (Gibco 11966-025) supplemented with 10 mM galactose at 9,000 cells/well in 96 well plates (Corning costar 3610). 24 hrs later, compounds, in DMSO, were added at various concentrations to a final 0.1% DMSO for all wells. […] After a 15 minute incubation cellular ATP levels were read out using a Promega GloMax® DiscoverMicroplate Reader.
(§2) The ratio of relative CellTiter-Glo values from cells grown in galactose to cells grown in glucose was determined (gal/glc ratio). The gal/glc ratio vs concentration is then graphed, and non-linear regression is used to find the highest concentration of MTK compound at which gal/glc>0.80 (the “highest mito-safe dose”, or IC20).
Data set [4] deals with SKOV3 cells.
Method: as §1, §2

For the compound `CC(C)(F)CO[C@H]1COc2ccccc2[C@@H]1Nc1ncnc2[nH]c(C3CC3)cc12` [EP-0043180, 6-cyclopropyl-N-[(3R,4S)-3-(2-fluoro-2-methyl-propoxy)chroman-4-yl]-7H-pyrrolo[2,3-d]pyrimidin-4-amine], in data set [1] (Homo sapiens), the EC50 amounted to 149 nM. The “pS129 α-synuclein” value in data set [2] was “significantly reduces”. In the data set on SKOV3 cells [3], the “Mito-Safety Index (highest mito-safe dose/mt-Keima EC50)” value (shortened to “Mito-Safety Index”) is 168.02.
“N-[(3R,4,S)-3-(2-methoxyethoxy)chroman-4-yl]-6-(trifluoromethyl)-7H-pyrrolo[2,3-d]pyrimidin-4-amine [EP-0042319]”: the EC50 in data set [1] amounted to 246 nM. Moreover, the “pS129 α-synuclein” value in data set [2] is listed as “significantly reduces”. Moreover, in the data set with SKOV3 cells [4], the “Mito-Safety Index” value stood at 74.75.
Turning to `COCCO[C@H]1COc2ccccc2[C@@H]1Nc1ncnc2[nH]c(C3CC3)cc12` [EP-0041944, 6-cyclopropyl-N-[(3R,4S)-3-(2-methoxyethoxy)chroman-4-yl]-7H-pyrrolo[2,3-d]pyrimidin-4-amine], the EC50 in data set [1] (Homo sapiens) came to 130 nM. Also, the “pS129 α-synuclein” value in data set [2] is “significantly reduces”. Also, the “Mito-Safety Index” value with SKOV3 cells [3] came out at 45.94.
